# Source: patent publication US9399631B2, “Polyphenol proteasome inhibitors, synthesis, and methods of use” (UNIVERSITY OF SOUTH FLORIDA, priority 2003, dated 2016)
# Where two headings read alike, the source gives them in different places.
# What was measured:
# NK cells (YT cell line) = assay: Western blot of proteasome target proteins in non-transformed NK cells (YT line); type: cell-based, human; conditions: treatment up to 12 hour
# Experimental: (§1) Cell Culture, Cell Extract Preparation, and Western Blot Assay. Human leukemia Jurkat T and prostate cancer LNCaP cells were cultured in RPMI 1640 medium supplemented with 10% fetal calf serum, 100 units/ml of penicillin, and 100 μg/ml streptomycin. Human immortalized, non-transformed NK cells (YT cell line) (38) were cultured in RPMI 1640 supplemented with 1 mM MEM sodium pyruvate solution, 0.1 mM MEM non-essential amino acids solution, 10% fetal calf serum. 100 units/ml penicillin, and 100 μg/ml streptomycin. Normal (WI-38) and simian virus 40 (SV40)-transformed (VA-13) human fibroblasts were grown in Dulbecco's modified Eagle's medium supplemented with 10% fetal calf serum, 100 units/ml of penicillin and 100 μg/ml of streptomycin. All cells were maintained at 37° C. in a humidified incubator with an atmosphere of 5% CO2. A whole cell extract was prepared in accordance with An et al. (An, B. et al. Cell Death Differ, 1998, 5:1062-75). Briefly, cells were harvested, washed with PBS twice, and homogenized in a lysis buffer [50 mM Tris-HCl (pH 8.0), 5 mM EDTA, 150 mM NaCl, 0.5% NP-40, 0.5 mM phenylmethylsulfonyl fluoride, and 0.5 mM dithiothreitol] for 30 min at 4° C. Afterwards, lysates were centrifuged at 12,000×g for 15 min at 4° C., and the supernatants were collected as whole cell extracts. Equal amounts of protein extract (60 μg) were resolved by SDS-polyacrylamide gel electrophoresis and transferred to a nitrocellulose membrane using a Semi-Dry Transfer system (BIO-RAD, Hercules, Calif.). Jurkat T, LNCaP, or DU-145 cells were treated with various concentrations of synthetic or natural tea polyphenols for indicted hours. The enhanced chemiluminescence (ECL) Western blot analysis was then performed using specific antibodies to the proteins of interest (p^27kip, IκB-α, PARP, Bax or actin). The ratio of p27 or IκB-α to the corresponding actin was determined by scanning intensities of the protein bands. […]
# purified 20S proteasome [1] = conditions: natural (−)-EGCG; cited from earlier work
# WI-38 cells = assay: Western blot of p27 in normal WI-38 fibroblasts; type: cell-based, human; conditions: 25 μM, 36 hours
# Experimental: as §1, with “Afterwards, lysates were centrifuged at 12,000×g for 15 min at 4° C., and the supernatants were collected as whole cell extracts. Equal amounts of protein extract (60 μg) were resolved by SDS-polyacrylamide gel electrophoresis and transferred to a nitrocellulose membrane using a Semi-Dry Transfer system (BIO-RAD, Hercules, Calif.). Jurkat T, LNCaP, or DU-145 cells were treated with various concentrations of synthetic or natural tea polyphenols for indicted hours. The enhanced chemiluminescence (ECL) Western blot analysis was then performed using specific antibodies to the proteins of interest (p^27kip, IκB-α, PARP, Bax or actin).” left out
# [2] = system: 26S proteasome in a Jurkat cell lysate; assay: Chymotrypsin-like activity of 26S proteasome in Jurkat cell lysate; type: biochemical, human; conditions: 10 μM
# Experimental: To determine the specificity of the synthetic GTP analogs, their effects were tested on the chymotrypsin-like and trypsin-like activities of the 26S proteasome in a Jurkat cell lysate. […] (+)-GCG at the same concentration inhibited ˜50% of the chymotrypsin-like activity. The potencies of (+)-EGCG and (+)-GCG were similar to those of their natural partners, respectively (FIG. 17A). […] Furthermore, none of the synthetic or control natural compounds could inhibit more than 15% of activity of a purified calpain enzyme (FIG. 17C). […] Values are mean triplicates and error bars denote standard deviations.
# DU145 cells = assay: Cell-free caspase-3 activity assay, DU145 cells; type: cell-based, human; conditions: 10 μM, 72 hours, normalized to 0 hours
# Experimental: To examine whether (+)-EGCG could induce apoptosis only in LNCaP, but not DU-145, cells, both cell lines were treated with 10 μM (+)-EGCG for 0, 24, 48 or 72 hours, followed by performance of cell-free caspase-3 activity assay. Cells were harvested at each sequential time-point and activity was determined by incubating whole cell extracts with caspase-3 substrate and measuring free AMCs (FIG. 20C). All the time-points were normalized to 0 hours. (+)-EGCG activated caspase-3 in LNCaP cells in a time-dependent manner: by 2.5-, 3.5- and 6-fold at 24, 48 and 72 hours, respectively (FIG. 20C). In contrast, little caspase-3 activity was detected in (+)-EGCG-treated in DU145 cells: only ˜2-fold induction at 72 hours (FIG. 20C). In the same experiment, (−)-EGCG at 10 μM was used as a control. […] Therefore, the abilities of (+)-EGCG to activate apoptotic program in these prostate cancer cell lines are correlated well to their abilities to accumulate Bax protein levels to a critical high threshold (compare FIGS. 20C and 20D vs. 20B). Values are means of triplicate independent experiments and error bars denote standard deviations.
# purified 20S proteasome [3] = target: purified 20S proteasome (UniProt Q9P992); assay: Inhibition of chymotrypsin-like activity of purified 20S proteasome (source not stated); type: biochemical; parameters: other: 1 μM; other: 10 μM; conditions: 1 μM
# Experimental: (§2) Inhibition of purified 20S proteasome activity by natural or synthetic GTPs. Purified prokaryotic (0.5 μg) or eukaryotic (0.02 μg) 20S proteasome was incubated with 20 μM fluorogenic peptide substrate, Suc-Leu-Leu-Val-Tyr-AMC for 30 min at 37° C. in […] of assay buffer (50 mM Tris-HCl, pH 7.5), with or without a natural or synthetic tea polyphenol. After incubation, production of hydrolyzed 7-amido-4-methyl-coumarin (AMC) groups was measured using a multi-well plate VERSAFLUOR Fluorometer with an excitation filter of 380 nm and an emission filter of 460 nm (BIO-RAD), and a multi-well plate reader Wallac 1420 VICTORTM^2 with an excitation filter of 355 nm and an emission filter of 460 nm (EG&G WALLAC).
# purified 20S proteasome [4] = target: purified 20S proteasome (UniProt Q9P992); assay: as above; type: biochemical; parameters: IC50; other: purified 20S proteasome, multiple concentrations; conditions: purified 20S proteasome, multiple concentrations
# Experimental: as §2
# purified 20S proteasome (UniProt Q9P992), sequence (Q9P992 whole entry): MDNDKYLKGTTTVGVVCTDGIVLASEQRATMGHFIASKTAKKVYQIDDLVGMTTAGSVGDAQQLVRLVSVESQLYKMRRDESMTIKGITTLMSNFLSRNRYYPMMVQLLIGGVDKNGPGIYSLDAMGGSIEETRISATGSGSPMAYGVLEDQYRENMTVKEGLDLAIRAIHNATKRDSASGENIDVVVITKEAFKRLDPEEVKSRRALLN
Structure (SMILES),IκB-α expression (NK cells (YT cell line)),inhibition of chymotrypsin-like activity of 26S proteasome [2] [%],inhibition of proteasomal activity (purified 20S proteasome [3]) [%],further results
"O=C(O[C@@H]1Cc2c(O)cc(O)cc2O[C@@H]1c1cc(O)c(O)c(O)c1)c1cc(O)c(O)c(O)c1 [(−)-EGCG, (−)-epigallocatechin-3-gallate, reference compound]",unchanged,,,p27 expression (NK cells (YT cell line)): no p27 expression was detected; IC50 (purified 20S proteasome [1]): 100 to 200 nM
"O=C(N[C@@H]1Cc2c(O)cc(O)cc2O[C@@H]1c1cc(O)c(O)c(O)c1)c1cc(O)c(O)c(O)c1 [(−)-EGCG-amide, (−)-[2R,3R]-N-[5,7-Dihydroxy-2-(3,4,5-trihydroxyphenyl)-chroman-3-yl]-3,4,5-trihydroxybenzamide]",unchanged,,,p27 levels (WI-38 cells): slightly increased
"O=C(OC1Cc2c(O)cc(O)cc2OC1c1cc(O)c(O)c(O)c1)c1cc(O)c(O)c(O)c1 (single isomer, unassigned; (+)) [(+)-EGCG]",,76,86,caspase-3 induction (DU145 cells): ~2 fold; IC50 (purified 20S proteasome [4]; read-out: IC50): 210 nM
"O=C(OC1Cc2c(O)cc(O)cc2OC1c1cc(O)c(O)c(O)c1)c1cc(O)c(O)c(O)c1 (single isomer, unassigned; (+)) [(+)-GCG]",,~50,70,IC50 (purified 20S proteasome [4]): 410 nM
